The results in this text go back to US12448400B2, “KRAS G12D modulating compounds” (priority 2023, dated 2025).

Like-named read-outs stand apart in the source and are kept apart here.

One assay deals with GP2D (KRAS G12D) cells. Briefly: 2D cell viability assay (CellTiter-Glo). In kind it is cell-based. The following applies: GP2D cells, 4 days, CellTiter-Glo luminescence, read-out: G12D 2D EC50. Here is the method:
Example B. 2D Cell Viability Assay
Compounds were tested in a 384-well format for their ability to inhibit the viability of GP2D (KRAS G12D) cells in 2D assays. Compounds were serially diluted (1:3) in DMSO. The LabCyte ECHO Acoustic dispenser system was used to pre-spot assay plates with 200 nL of test molecule per well. 1000 cells/well (40 μL volume per well) in RPMI medium with 10% FBS, and Penicillin-Streptomycin-Glutamine were plated in pre-spotted 384-well plates (Greiner, Catalog #781076) on the BioTEK EL406 liquid dispenser with a 5 μL dispensing cassette (BioTek 7170011). The plates were incubated at 37° C., 5% CO2 for 4 days before addition of CellTiter-Glo (CTG) reagent and measurement of luminescence signal. EC50 values were defined as the compound concentration that causes a 50% decrease in luminescence signal and were calculated using a sigmoidal dose-response model to generate curve fits.

The target in the next assay is GDP-loaded KRAS G12D (Homo sapiens, UniProt P01116, G12D). Briefly: KRAS G12D (GDP) biochemical assay, TR-FRET probe displacement. The assay is classed as binding. To be noted: 0.5 nM enzyme, 30 min pre-incubation, 2 h incubation, TR-FRET ratio; read-out: G12D IC50. Here is the method:
Example A. KRAS G12D (GDP) Biochemical Assay
Compounds were tested for binding to GDP-loaded KRAS G12D in a 384-well assay format using a TR-FRET probe displacement assay in buffer consisting of 50 mM Hepes (pH 7.4), 150 mM NaCl, 5 mM MgCl2 and 0.005% Tween-20. […] Compounds were serially diluted (1:3) in DMSO. The LabCyte ECHO Acoustic dispenser system was used to pre-spot the assay plates (384-well Non-Binding Surface plates, Corning, Catalog #3824) with 50 nL of compound. The compounds were pre-incubated with 5 μL of 2× final enzyme concentration for 30 minutes before adding 5 μL of 2× final concentration of Eu-streptavidin and TR-FRET probe (10 μL final reaction volume). The plates were incubated at room temperature for 2 hours before measuring TR-FRET ratio on the Envision plate reader. IC50 values were defined as the compound concentration that causes a 50% decrease in TR-FRET ratio and were calculated using a sigmoidal dose-response model to generate curve fits.
(TR-FRET usually uses a lanthanide donor and a delayed reading to cut background.)

Sequence of GDP-loaded KRAS G12D (P01116 1-188 isoform P01116-2 G12D): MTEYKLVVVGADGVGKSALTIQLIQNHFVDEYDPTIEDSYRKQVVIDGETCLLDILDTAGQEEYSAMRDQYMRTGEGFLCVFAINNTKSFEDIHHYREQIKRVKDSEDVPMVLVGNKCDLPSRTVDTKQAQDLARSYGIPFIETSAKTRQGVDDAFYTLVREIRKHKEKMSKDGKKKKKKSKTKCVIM

On to `C#Cc1c(F)ccc2cc(O)cc(-c3c(F)c4c5c(nc(OC[C@@]67CCCN6C[C@H](F)C7)nc5c3F)N3C[C@H]5CC[C@H](N5)[C@H]3CCC4)c12` (atropisomer, axis not shown; (aR)) [Example 28-P, (R)-4-((1S,4R,15aR)-10,12-difluoro-8-(((2R,7aS)-2-fluorotetrahydro-1H-pyrrolizin-7a(5H)-yl)methoxy)-2,3,4,5,13,14,15,15a-octahydro-1H-1,4-epiminoazepino[1′,2′:1,8]azocino[2,3,4-de]quinazolin-11-yl)-5-ethynyl-6-fluoronaphthalen-2-ol], for which, in the assay with GP2D (KRAS G12D) cells (96 h), the concentration giving a half-maximal response (EC50) stood at 130 pM. Also, the 50% inhibitory concentration (IC50) on GDP-loaded KRAS G12D came to 70 pM.
On the same counts, the results for `C#Cc1c(F)ccc2cc(O)cc(-c3c(F)c4c5c(nc(OC[C@]6(C)CN(C)CC[C@@H]6C(F)F)nc5c3F)N3C[C@H]5CC[C@H](N5)[C@H]3CCC4)c12` (atropisomer, axis not shown; (aR)) [Example 78-P, (R)-4-((1S,4R,15aR)-8-(((3S,4S)-4-(difluoromethyl)-1,3-dimethylpiperidin-3-yl)methoxy)-10,12-difluoro-2,3,4,5,13,14,15,15a-octahydro-1H-1,4-epiminoazepino[1′,2′:1,8]azocino[2,3,4-de]quinazolin-11-yl)-5-ethynyl-6-fluoronaphthalen-2-ol] are 140 pM and 40 pM.
For `C#Cc1c(F)ccc2cc(OCc3oc(=O)oc3C)cc(-c3nc4c5c(nc(OC[C@@]67CCCN6C[C@H](F)C7)nc5c3F)N3C[C@H]5CC[C@@H]([C@@H]3[C@@H](C)C4)N5Cc3oc(=O)oc3C)c12` [Example 2, 4-(((5-ethynyl-6-fluoro-4-((5S,5aS,6S,9R)-1-fluoro-12-(((2R,7aS)-2-fluorotetrahydro-1H-pyrrolizin-7a(5H)-yl)methoxy)-5-methyl-14-((5-methyl-2-oxo-1,3-dioxol-4-yl)methyl)-4,5,5a,6,7,8,9,10-octahydro-3,10a,11,13,14-pentaaza-6,9-methanonaphtho[1,8-ab]heptalen-2-yl)naphthalen-2-yl)oxy)methyl)-5-methyl-1,3-dioxol-2-one], in the assay with GP2D (KRAS G12D) cells (96 h), the concentration giving a half-maximal response (EC50) worked out at 240 pM. Further, the IC50 on GDP-loaded KRAS G12D stood at 40000 pM.
As to `C#Cc1c(F)ccc2cccc(-c3nc4c5c(nc(OC[C@@]67CCCN6C[C@H](F)C7)nc5c3F)N3C[C@H]5CC[C@@H]([C@H]3CCC4)N5Cc3oc(=O)oc3-c3ccccc3)c12` [Example 4, 4-(((6aR,7S,10R)-2-(8-ethynyl-7-fluoronaphthalen-1-yl)-1-fluoro-13-(((2R,7aS)-2-fluorotetrahydro-1H-pyrrolizin-7a(5H)-yl)methoxy)-5,6,6a,7,8,9,10,11-octahydro-4H-3,11a,12,14,15-pentaaza-7,10-methanocyclohepta[4,5]cycloocta[1,2,3-de]naphthalen-15-yl)methyl)-5-phenyl-1,3-dioxol-2-one], the concentration giving a half-maximal response (EC50) in the assay with GP2D (KRAS G12D) cells (96 h) came out at 2300 pM. The IC50 on GDP-loaded KRAS G12D amounted to 3300 pM.
On the same counts, the results for `C#Cc1c(F)ccc2cccc(-c3nc4c5c(nc(OC[C@@]67CCCN6C[C@H](F)C7)nc5c3F)N3C[C@H]5CC[C@@H]([C@H]3CCC4)N5Cc3c(C)oc(=O)n3C)c12` [Example 5, 4-(((6aR,7S,10R)-2-(8-ethynyl-7-fluoronaphthalen-1-yl)-1-fluoro-13-(((2R,7aS)-2-fluorotetrahydro-1H-pyrrolizin-7a(5H)-yl)methoxy)-5,6,6a,7,8,9,10,11-octahydro-4H-3,11a,12,14,15-pentaaza-7,10-methanocyclohepta[4,5]cycloocta[1,2,3-de]naphthalen-15-yl)methyl)-3,5-dimethyloxazol-2(3H)-one] are 78000 pM and 4700 pM.
On to `C#Cc1c(F)ccc2cc(O)cc(-c3nc4c5c(nc(OCC67CCCN6C(COC(C(F)(F)F)(C(F)(F)F)C(F)(F)F)CC7)nc5c3F)N3CC5CCC(C3CC4)N5Cc3oc(=O)oc3C)c12` [Example 68, 4-(((8aR,9S,12R)-5-(8-ethynyl-7-fluoro-3-hydroxynaphthalen-1-yl)-4-fluoro-2-(((3S,7aS)-3-(((1,1,1,3,3,3-hexafluoro-2-(trifluoromethyl)propan-2-yl)oxy)methyl)tetrahydro-1H-pyrrolizin-7a(5H)-yl)methoxy)-7,8,8a,9,10,11,12,13-octahydro-1,3,6,13a,14-pentaaza-9,12-methanonaphtho[1,8-ab]heptalen-14-yl)methyl)-5-methyl-1,3-dioxol-2-one], for which the concentration for a half-maximal effect (EC50) with GP2D (KRAS G12D) cells amounted to 650 pM.
With `C#Cc1c(F)ccc2cc(N)cc(-c3nc4c5c(nc(OC[C@@]67CCCN6C[C@H](F)C7)nc5c3F)N3C[C@H]5CC[C@@H]([C@H]3CCC4)N5Cc3oc(=O)oc3-c3ccccc3)c12` [Example 69, 4-(((6aR,7S,10R)-2-(3-amino-8-ethynyl-7-fluoronaphthalen-1-yl)-1-fluoro-13-(((2R,7aS)-2-fluorotetrahydro-1H-pyrrolizin-7a(5H)-yl)methoxy)-5,6,6a,7,8,9,10,11-octahydro-4H-3,11a,12,14,15-pentaaza-7,10-methanocyclohepta[4,5]cycloocta[1,2,3-de]naphthalen-15-yl)methyl)-5-phenyl-1,3-dioxol-2-one], the EC50 in the assay with GP2D (KRAS G12D) cells (96 h) amounted to 480 pM.
The same measure, in the same setting: for `C#Cc1c(F)ccc2cc(NCc3oc(=O)oc3C)cc(-c3nc4c5c(nc(OC[C@@]67CCCN6C[C@H](F)C7)nc5c3F)N3C[C@H]5CC[C@@H]([C@H]3CCC4)N5Cc3oc(=O)oc3C)c12` [Example 70, 4-(((5-ethynyl-6-fluoro-4-((6aR,7S,10R)-1-fluoro-13-(((2R,7aS)-2-fluorotetrahydro-1H-pyrrolizin-7a(5H)-yl)methoxy)-15-((5-methyl-2-oxo-1,3-dioxol-4-yl)methyl)-5,6,6a,7,8,9,10,11-octahydro-4H-3,11a,12,14,15-pentaaza-7,10-methanocyclohepta[4,5]cycloocta[1,2,3-de]naphthalen-2-yl)naphthalen-2-yl)amino)methyl)-5-methyl-1,3-dioxol-2-one] the value was 310 pM; for `C#Cc1c(F)ccc2cc(O)cc(-c3nc4c5c(nc(OC[C@@]67CCCN6C[C@H](F)C7)nc5c3F)N3C[C@H]5CC[C@@H]([C@H]3CCC4)N5Cc3oc(=O)oc3-c3ccccc3)c12` [Example 72, 4-(((6aR,7S,10R)-2-(8-ethynyl-7-fluoro-3-hydroxynaphthalen-1-yl)-1-fluoro-13-(((2R,7aS)-2-fluorotetrahydro-1H-pyrrolizin-7a(5H)-yl)methoxy)-5,6,6a,7,8,9,10,11-octahydro-4H-3,11a,12,14,15-pentaaza-7,10-methanocyclohepta[4,5]cycloocta[1,2,3-de]naphthalen-15-yl)methyl)-5-phenyl-1,3-dioxol-2-one], 110 pM.
Regarding `C#Cc1c(F)ccc2cc(O)cc(-c3nc4c5c(nc(OC[C@]6(C)CN(C)CC[C@@H]6C(F)F)nc5c3F)N3C[C@H]5CC[C@@H]([C@H]3CCC4)N5Cc3oc(=O)oc3C)c12` [Example 74, 4-(((6aR,7S,10R)-13-(((3S,4S)-4-(difluoromethyl)-1,3-dimethylpiperidin-3-yl)methoxy)-2-(8-ethynyl-7-fluoro-3-hydroxynaphthalen-1-yl)-1-fluoro-5,6,6a,7,8,9,10,11-octahydro-4H-3,11a,12,14,15-pentaaza-7,10-methanocyclohepta[4,5]cycloocta[1,2,3-de]naphthalen-15-yl)methyl)-5-methyl-1,3-dioxol-2-one], the EC50 with GP2D (KRAS G12D) cells (96 h) was 60 pM.
Same read-out and setting: as for `[2H]C([2H])([2H])N1CC[C@H](C(F)F)[C@](C)(C([2H])([2H])Oc2nc3c4c(nc(-c5cc(O)cc6ccc(F)c(C#C)c56)c(F)c4n2)CCC[C@@H]2[C@@H]4CC[C@H](CN32)N4Cc2oc(=O)oc2C)C1` [Example 75, 4-(((6aR,7S,10R)-13-(((3S,4S)-4-(difluoromethyl)-3-methyl-1-(methyl-d3)piperidin-3-yl)methoxy-d2)-2-(8-ethynyl-7-fluoro-3-hydroxynaphthalen-1-yl)-1-fluoro-5,6,6a,7,8,9,10,11-octahydro-4H-3,11a,12,14,15-pentaaza-7,10-methanocyclohepta[4,5]cycloocta[1,2,3-de]naphthalen-15-yl)methyl)-5-methyl-1,3-dioxol-2-one], the figure is 80 pM; as for `C#Cc1c(F)ccc2cc(N)cc(-c3nc4c5c(nc(OC[C@]6(C)CN(C)CC[C@@H]6C(F)F)nc5c3F)N3C[C@H]5CC[C@@H]([C@H]3CCC4)N5Cc3oc(=O)oc3C)c12` [Example 76, 4-(((6aR,7S,10R)-2-(3-amino-8-ethynyl-7-fluoronaphthalen-1-yl)-13-(((3S,4S)-4-(difluoromethyl)-1,3-dimethylpiperidin-3-yl)methoxy)-1-fluoro-5,6,6a,7,8,9,10,11-octahydro-4H-3,11a,12,14,15-pentaaza-7,10-methanocyclohepta[4,5]cycloocta[1,2,3-de]naphthalen-15-yl)methyl)-5-methyl-1,3-dioxol-2-one], 890 pM.

A word on the EC50: it is the concentration giving half of the maximal effect. As usually defined, the IC50 is the concentration at which inhibition is half-maximal.
